Measurements as given in patent US20030134851A1, “Methods and compositions for providing glutamine” (priority 2001, published 2003).
“Also recorded” adds a separate entry of the source.

Tests used:
[1] = system: intestinal damage caused by protein-energy malnutrition; test: Intestinal damage caused by protein-energy malnutrition in pigs; type: in vivo, pig; conditions: for Ileal mucosa histology (electron transmission microscopy) / Jejunal mucosa histology (electron transmission microscopy): malnourished pigs fed ENSURE PLUS plus supplement; for Alkaline phosphatase (AP) activity in jejunum: versus caseinate supplement; for T helper (CD4+) subpopulation of intra-epithelial lymphocytes in jejunum: versus control group
Method: A study was conducted to evaluate the potential effects of N-acetyl-L-glutamine versus free glutamine on intestinal damage caused by protein-energy malnutrition in pigs. In this study, 5-week-old domestic pigs, were provided by a certified farm. The pigs were randomly assigned to one of two groups. In one group 3 pigs were freely fed with ENSURE PLUS® (Ross Products Division, Abbott Laboratories) for 30 days. In the second group, 9 pigs were also fed with ENSURE PLUS®, but at only 20% of the daily intake of the first group. This second group was divided into 3 subgroups with […] each to receive a daily supplement of either calcium caseinate, glutamine or N-acetyl-L-glutamine. Daily average energy and protein supplied to the control group ranged from 3300 kcal, 138 g protein at the beginning of the study to 4500 kcal, 187 g protein at the end of the study. In the second group, supplements of caseinate, glutamine and N-acetyl-L-glutamine provided an additional 1.32 grams nitrogen equivalents per day (basically, 6.89 grams L-glutamine, or 8.87 grams N-acetyl-L-glutamine or 8.42 grams caseinate protein are supplemented per day). After 30 days, all pigs were deprived of food for 16 hours. The animals were then weighed, sedated, anesthetized and sacrificed through terminal bleeding by jugular puncture.
The entire small intestine was quickly removed. The 60 cm segment of the small intestine from the ligament of Treitz was considered proximal jejunum. A 5 cm long segment from the ligament of Treitz was selected for histological analysis of jejunum. The 60 cm length closest to the ileo-cecal valve was considered the distal ileum. A 5 cm segment from the ileo-cecal valve was selected for histological analysis of the ileum. The intestine segments were rinsed thoroughly with ice-cold saline solution, opened length-wise and blotted dry. The mucosa was scraped off using a glass slide onto a cold Petri dish, weighed, immediately frozen under liquid nitrogen and stored at −80° C. until biochemical analysis.
Jejunal and ileal mucosa were homogenized in 10 mM phosphate buffer (pH 7.4) using a mechanical Potter homogenizer, for protein and DNA assays. For the determination of the enzymatic markers of injury, functionality and antioxidant defense system, the mucosal homogenates were centrifuged at 3000 g for 10 min. and the resulting supernatants were used for enzymatic assays. For the determination of total glutathione, the mucosa was homogenized in 5% trichloroacetic acid and centrifuged at 8000 g for 5 min.
Biochemical analysis and immunological analysis were performed on the specimens. Concentrations of intestinal mucosa protein and DNA were determined using the Bradford method (Analytical Biochemistry, Volume 72, pages 248-254, 1976) and the method of Labarca and Paigen (Analytical Biochemistry, Volume 102 (2), pages 344-352, 1980), respectively. The degree of intestinal damage caused by malnutrition was evaluated by measuring alkaline phosphatase activity using the method of Goldstein (R. Goldstein, T. Klein, S. Freier and J. Menczel. American Journal of Clinical Nutrition 24: 1224-1231, 1970).
Glutathione reductase activity was evaluated by the method of Carlberg and Mannervik (I. Carlberg and B. Mannervik, Methods in Enzymology, Volume 113, pp 484-490, 1985). Glutathione transferase activity was measured using the method of Habig, et al. (W. H. Habig, M. J. Pabst and W. B. Jakoby, Journal of Biological Chemistry. […]). Glutathione peroxidase activity was assayed by the method of Flohe and Gunzler (L. Flohe and W. A. Gunzler, Methods in Enzymology, Volume 105, pp 114-121, 1984), and the non-protein sulfhydryl content (reported as reduced glutathione equivalents) was determined by the method of Anderson (M. E. Anderson, Methods in Enzymology, 133: 548-554, 1985). […]

[2] = administered intravenously, humans; cited from earlier work
[3] = Feeding pig model (absorption as component of diet); type: in vivo
Text: Fifteen pigs, 15-20 kg in weight were provided by a certified farm. The pigs were acclimated to the laboratory for 2 days. A standard pig diet and water was provided ad libitum. After acclimation, the pigs were randomly assigned into group C [5 pigs, receiving a standard pig diet plus 3 g/kg of Cr2O3, (Merck cat No 1.02483)], group G [5 pigs, receiving diet C plus 8 g/kg of Gln, (Ajimoto)], and group N [5 pigs, receiving diet C plus 10.5 g/kg of N-acetyl-L-glutamine, (Flamma)]. During the experimental phase of the study, each group received 1000 grams of their respective diet per day per animal, fed in 3 portions and water was provided ad libitum. This experimental phase of feeding lasted 5 days.
On the day of experiment, animals were weighed and received the standard diet intake (333 g diet per animal) at 7:00 a.m. Three hours after feeding, animals were weighed, sedated and bled through jugular vein puncture. Animals were quickly opened by abdominal medium sagital incision and the content of the duodenum, medium jejunum (about 2 meters from the ligament of Treitz) and ileum (30 cm from the ileocecal valve) were taken, frozen in liquid nitrogen, lyophylized, and stored at −80° C. until analysis. Samples of liver and kidney were removed, dissected of visible fat and connective tissue, quickly frozen in liquid nitrogen and stored at −80° C. until analysis. […]
Intestinal content was analyzed for glutamine, N-acetyl-L-glutamine and chromium (III) oxide. […]
For analysis of glutamine, the lyophilized intestinal content was treated and analyzed as described in the intestinal loop model above.
Chromium was incorporated into the diets to provide a correction factor to reflect content per kg of original diet. […] The absorbance at 372 nm against demineralized water as a blank was determined. The absorbance readings were converted to mg of Cr2O3 by employing the equation of a standard curve prepared by analyzing 0, 50, 100, 200 and 500 microliters of a standard chromium solution (2.9034 g of K2Cr2O7/L, which is equivalent to 1.5 g/L of Cr2O3).

[4] = N-acetyl-L-glutamine diet (55.8 mmole/kg diet), pigs, 3 hours after feeding

SMILES	Ileal mucosa histology (electron transmission microscopy) ([1]; 30 days)	Jejunal mucosa histology (electron transmission microscopy) ([1]; 30 days)	Prevention of biochemical and immunological changes induced by malnutrition in the small intestine ([1]; malnourished pigs, 30 days)	Alkaline phosphatase (AP) activity in jejunum ([1]; malnourished pigs, 30 days)	Total number of peyer's patch lymphocytes in ileum ([1]; malnourished pigs, versus N-acetyl-glutamine-supplemented or control groups)	T helper (CD4+) subpopulation of intra-epithelial lymphocytes in jejunum ([1]; malnourished pigs)	Dose excreted in the urine [2]	N-acetyl-L-glutamine in distal ileum content [3, 4] [mmole/kg original diet]	N-acetyl-L-glutamine in medium jejunum content [3, 4] [mmole/kg original diet]	Absorption between the medial jejunum and the distal ilium ([3]; pig, in vivo)	Prevention of overt signs of inflammation in the epithelial lining of the gastrointestinal tract ([1]; electron transmission micrographs, malnourished pigs)	Glutathione transferase activity in small intestine ([1]; malnourished pigs, 30 days)	Number of CD1+ intra-epithelial lymphocytes in jejunum ([1]; malnourished pigs, 30 days)	Intestinal contents of protein (jejunum and ileum) and DNA (ileum) ([1]; malnourished pigs, 30 days, versus caseinate or glutamine supplement)	Amount of GSH in the intestinal mucosa ([1]; malnourished pigs, 30 days, versus caseinate or glutamine, did not reach significance)	Total number of peyer's patch lymphocytes in jejunum ([1]; malnourished pigs, versus caseinate- or glutamine-supplemented groups)
NC(=O)CC[C@H](N)C(=O)O [Glutamine, glutamine]	displayed loss of microvilli, wide intercellular spaces, and intense lymphocytes infiltration	displayed shortened microvilli, expanded intercellular spaces, and irregular lobulated nucleus	no clear effect	tended to have higher AP activity	significantly lower	significantly higher	–	–	–	–	–	–	–	–	–	–
CC(=O)N[C@@H](CCC(N)=O)C(=O)O [N-acetyl-L-glutamine]	less affected by protein-energy malnutrition	less affected by protein-energy malnutrition	performed better than the glutamine or caseinate supplemented groups; also recorded: positive effect	tended to have higher AP activity	–	significantly higher	20-40%	12.8 ± 2.1	10.3 ± 2.4	not observed	more effective than glutamine	less affected by the malnutrition process	significantly higher than in the rest of the groups	tended to be higher	tended to be slightly higher	tendency of the total number of peyer's patch lymphocytes to be higher
